Measurements from patent publication US20250186317A1, “SKIN CARE COMPOSITION COMPRISING LACTIC ACID, POLYHYDROXY ACID, AND ITS BUFFERING SALT” (The Procter & Gamble Company, priority 2023, published 2025).

Tested on: skin
Test: Bakuchiol penetration to skin from low pH formulations
Conditions: in low pH formulations compared to neutral/alkaline pH formulations

Compound: C=C[C@@](C)(/C=C/c1ccc(O)cc1)CCC=C(C)C [bakuchiol, Bakuchiol]
- Penetration to skin: improved penetration to skin
